The results in this text go back to ChEMBL document CHEMBL1201862, “PubChem BioAssay data set” (2004).

Test systems include HCT-15; MDA-MB-231; HCT-116; MCF7; OVCAR-5; NCI-H460; TK-10; OVCAR-3; SK-MEL-28; MOLT-4; PC-3; LOX IMVI; CAKI-1; NCI-H226; 786-0; MDA-N; SF-268; COLO 205; DU-145; HL-60.
Common to all, as to test: NCI-60 cell line screen, 48 h

Molecules are shown by their SMILES.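 96-well plates; 48 h exposure; 5 concentrations. Endpoints by linear interpolation between flanking doses. Not reached: highest tested concentration assigned. The concentration for 50% growth inhibition is given as GI50.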 The source made the active and inactive calls. Rule as the data show it: active = GI50 up to about 1.1 µM and inactive = higher. A value given as a limit tells only on which side of the number the result lay.

As to `CC(/C=N/N=C1NCCCCN1)=N\N=C1NCCCCN1`, the GI50 in the assay with HCT-15 is more than 100 µM; with MDA-MB-231, > 100 µM (inactive); in the assay with HCT-116, 86.3 µM (inactive); in the assay on MCF7, 64.9 µM (inactive); with OVCAR-5, > 100 µM (inactive); in the assay on NCI-H460, > 100 µM (inactive). Further, the GI50 with TK-10 is > 100 µM (inactive); in the assay with OVCAR-3, > 100 µM (inactive); in the assay with SK-MEL-28 it was > 100 µM (inactive); with MOLT-4, 87.3 µM (inactive); in the assay with PC-3 it was 87.7 µM (inactive); in the assay with LOX IMVI, 16.7 µM (inactive). The GI50 is > 100 µM (inactive) in the assay on CAKI-1; > 100 µM (inactive) with NCI-H226; > 100 µM (inactive) in the assay on 786-0; 52.2 µM (inactive) in the assay with MDA-N; > 100 µM (inactive) in the assay with SF-268; 22.3 µM (inactive) with COLO 205.

Consider `CCOC(=O)c1nc2cc(F)c(F)cc2nc1NCc1cc(OC)c(OC)c(OC)c1`, for which the GI50 in the assay with HCT-15 is more than 100 µM; in the assay with HCT-116 it was > 100 µM (inactive); with MCF7 it was > 100 µM (inactive); in the assay on OVCAR-5, 54.2 µM (inactive); in the assay on NCI-H460 it was > 100 µM (inactive); in the assay on TK-10 it was > 100 µM (inactive). In addition, the GI50 with OVCAR-3, in the assay on SK-MEL-28, in the assay on MOLT-4, in the assay with DU-145, in the assay on HL-60 and in the assay on PC-3 was > 100 µM (inactive) each time. Further, the GI50 with LOX IMVI was > 100 µM (inactive); in the assay with CAKI-1, > 100 µM (inactive); in the assay with 786-0, 57.1 µM (inactive); in the assay with MDA-N it was > 100 µM (inactive); with SF-268, > 100 µM (inactive); with COLO 205 it was > 100 µM (inactive).

Consider `COC(=O)C1=C(C(=O)Nc2cccnc2Cl)N(c2ccc(OC)cc2[N+](=O)[O-])C(c2ccc(C)cc2)=CC1c1ccc(OC)cc1OC` (stereo not given), for which the GI50 in the assay on HCT-15 is 4.27 µM; in the assay on MDA-MB-231 it was 17.9 µM (inactive); in the assay on HCT-116, 9.98 µM (inactive); in the assay with MCF7, 2.15 µM (inactive); in the assay on OVCAR-5, 29 µM (inactive); with NCI-H460, 23.9 µM (inactive). In addition, the GI50 in the assay with TK-10 was 20.7 µM (inactive); with OVCAR-3, 8.57 µM (inactive); in the assay on SK-MEL-28, 59.6 µM (inactive); in the assay on MOLT-4, 7.94 µM (inactive); in the assay with DU-145, 23 µM (inactive); in the assay with HL-60 it was 4.61 µM (inactive). Further, the GI50 with PC-3 is 27.5 µM (inactive); with LOX IMVI it was 2.82 µM (inactive); in the assay on CAKI-1 it was 36.9 µM (inactive); in the assay with NCI-H226 it was 12.9 µM (inactive); with 786-0, 12 µM (inactive); in the assay on SF-268, 24.6 µM (inactive). For the same compound, the GI50 in the assay with COLO 205 is 15.5 µM (inactive).

Regarding `CCOC(=O)CCC(NC(=O)OCc1ccccc1)C(=O)NC(CCC(=O)OCC)C(=O)NC(CCC(=O)OCC)C(=O)NNC(=O)OC(C)(C)C` (stereo not given), the GI50 was more than 100 µM with HCT-15; > 100 µM (inactive) in the assay on MDA-MB-231; > 100 µM (inactive) in the assay with HCT-116; > 100 µM (inactive) in the assay with MCF7; > 100 µM (inactive) in the assay with OVCAR-5; > 100 µM (inactive) in the assay with NCI-H460. Further, the GI50 in the assay on TK-10, in the assay with SK-MEL-28, in the assay on MOLT-4, with HL-60, in the assay on PC-3 and in the assay with NCI-H226 was > 100 µM (inactive) each time. For the same compound, the GI50 with 786-0, in the assay with MDA-N and with COLO 205 was > 100 µM (inactive) throughout.

In the case of `Cc1cc(OC(=O)Nc2cccc3ccccc23)c(C(C)C)cc1C(=S)Nc1ccccc1`, the GI50 with HCT-15 was 10.9 µM; in the assay with HCT-116 it was 17.8 µM (inactive); with MCF7, 17.4 µM (inactive); with OVCAR-5, 20.7 µM (inactive); in the assay with NCI-H460 it was 16.9 µM (inactive); in the assay with OVCAR-3 it was 16.1 µM (inactive). The GI50 in the assay on SK-MEL-28 was 18 µM (inactive); in the assay with MOLT-4, 11.4 µM (inactive); with DU-145, 22.3 µM (inactive); in the assay on HL-60 it was 2.42 µM (inactive); in the assay on PC-3, 15.7 µM (inactive); in the assay on LOX IMVI, 14.7 µM (inactive). The GI50 is 22.1 µM (inactive) with CAKI-1; 23.4 µM (inactive) in the assay on 786-0; 17.9 µM (inactive) in the assay on MDA-N; 23.9 µM (inactive) with SF-268; 19.6 µM (inactive) in the assay with COLO 205.

With `NS(=O)(=O)c1nc(S(=O)(=O)O)c2[nH]cnc2n1`, the GI50 in the assay with HCT-15 is more than 100 µM; in the assay on MDA-MB-231, > 100 µM (inactive); with HCT-116 it was > 100 µM (inactive); with MCF7 it was > 100 µM (inactive); with OVCAR-5, > 100 µM (inactive); with NCI-H460 it was > 100 µM (inactive). The GI50 in the assay on TK-10 is > 100 µM (inactive); in the assay on OVCAR-3 it was > 100 µM (inactive); in the assay on SK-MEL-28 it was > 100 µM (inactive); in the assay on MOLT-4, 29 µM (inactive); in the assay with PC-3 it was > 100 µM (inactive); with LOX IMVI, > 100 µM (inactive). Further, the GI50 with CAKI-1, with NCI-H226, in the assay on 786-0, with MDA-N, in the assay on SF-268 and in the assay on COLO 205 was > 100 µM (inactive) in each case.

Turning to `CCCC[S+]([O-])CCC(N)P(=O)(O)O` (stereo not given), the GI50 with HCT-15 is more than 100 µM; with HCT-116 it was > 100 µM (inactive); in the assay with MCF7, > 100 µM (inactive); with OVCAR-5, > 100 µM (inactive); with NCI-H460, > 100 µM (inactive); in the assay on TK-10 it was > 100 µM (inactive). Besides, the GI50 with OVCAR-3, with SK-MEL-28, in the assay with MOLT-4, with DU-145, with HL-60 and in the assay on PC-3 was > 100 µM (inactive) in each case. The GI50 in the assay on LOX IMVI, in the assay with CAKI-1, with NCI-H226, in the assay with 786-0, with MDA-N and in the assay on SF-268 was > 100 µM (inactive) in each case. Further, the GI50 in the assay with COLO 205 was > 100 µM (inactive).

For `CC(Nc1ccc(Cl)cc1)c1ccncc1` (stereo not given), the GI50 with HCT-15 was more than 100 µM; in the assay on HCT-116, 53.3 µM (inactive); in the assay with MCF7 it was > 100 µM (inactive); in the assay on OVCAR-5, > 100 µM (inactive); with NCI-H460, 36.8 µM (inactive); in the assay with TK-10 it was > 100 µM (inactive). In addition, the GI50 is > 100 µM (inactive) in the assay on OVCAR-3; > 100 µM (inactive) in the assay with SK-MEL-28; 64.3 µM (inactive) in the assay on MOLT-4; 74.6 µM (inactive) in the assay on DU-145; 64.1 µM (inactive) in the assay with PC-3; > 100 µM (inactive) with LOX IMVI. Also, the GI50 in the assay with CAKI-1 was > 100 µM (inactive); in the assay on NCI-H226, > 100 µM (inactive); with 786-0, > 100 µM (inactive); in the assay with MDA-N, > 100 µM (inactive); with SF-268, 79.6 µM (inactive); in the assay with COLO 205 it was > 100 µM (inactive).

As for `Cc1cc(OCC(=O)N/N=C/C(Br)=C/c2ccccc2)nc(SCC(=O)N/N=C/C(Br)=C/c2ccccc2)n1`, the GI50 is more than 100 µM in the assay on HCT-15; > 100 µM (inactive) in the assay on HCT-116; 75.7 µM (inactive) with MCF7; > 100 µM (inactive) in the assay on OVCAR-5; 28.2 µM (inactive) in the assay on NCI-H460; > 100 µM (inactive) in the assay with OVCAR-3. For the same compound, the GI50 with SK-MEL-28 is > 100 µM (inactive); with DU-145, 58.3 µM (inactive); in the assay on HL-60 it was > 100 µM (inactive); with PC-3, 54.1 µM (inactive); with LOX IMVI, > 100 µM (inactive); in the assay on CAKI-1 it was > 100 µM (inactive). Further, the GI50 with 786-0 is 34.8 µM (inactive); in the assay with MDA-N, 49.4 µM (inactive); in the assay on SF-268 it was 48.2 µM (inactive); in the assay with COLO 205, 39.1 µM (inactive).

`CC1=C(C(=O)NNC(=O)Cc2ccccc2)CC(C(=O)NNC(=O)Cc2ccccc2)=C(C)N1`: the GI50 is more than 100 µM in the assay with HCT-15; > 100 µM (inactive) in the assay on MDA-MB-231; > 100 µM (inactive) in the assay on HCT-116; > 100 µM (inactive) with MCF7; > 100 µM (inactive) with OVCAR-5; > 100 µM (inactive) with NCI-H460. In addition, the GI50 in the assay on TK-10 is > 100 µM (inactive); in the assay with OVCAR-3 it was > 100 µM (inactive); with SK-MEL-28 it was > 100 µM (inactive); in the assay on DU-145, > 100 µM (inactive); in the assay with HL-60 it was 25.5 µM (inactive); with LOX IMVI, 80 µM (inactive). For the same compound, the GI50 in the assay on CAKI-1, in the assay with NCI-H226, with 786-0, with MDA-N, in the assay with SF-268 and in the assay with COLO 205 was > 100 µM (inactive) in each case.

Turning to `CN(C)C(=S)S` [SODIUM DIMETHYLCARBAMODITHIOATE], the GI50 in the assay with HCT-15 is more than 76 µM; with MDA-MB-231 it was 43.6 µM (inactive); in the assay with HCT-116, 25.5 µM (inactive); with MCF7, > 100 µM (inactive); in the assay on OVCAR-5, > 100 µM (inactive); with NCI-H460, 4.68 µM (inactive). Also, the GI50 in the assay on TK-10 was > 100 µM (inactive); with OVCAR-3 it was 0.305 µM (active); in the assay with SK-MEL-28, > 64.4 µM (inactive); with MOLT-4 it was 35.4 µM (inactive); with DU-145 it was > 95.7 µM (inactive); in the assay with HL-60, 1.33 µM (inactive). In addition, the GI50 in the assay on PC-3 is 3.37 µM (inactive); in the assay on LOX IMVI, 34.4 µM (inactive); in the assay on CAKI-1 it was 63.1 µM (inactive); in the assay on NCI-H226 it was > 100 µM (inactive); with 786-0 it was > 70 µM (inactive); with SF-268, > 100 µM (inactive). For the same compound, the GI50 in the assay with COLO 205 was 27.9 µM (inactive).
